Experimental data from BindingDB's records for doi:10.1021/acsmedchemlett.8b00158 (Utah State University, 2018).

test: Inhibition of recombinant human Cx26 expressed in Escherichia coli LB2003 assessed as reduction in cell growth measured after 18 hrs

Structure (SMILES) | IC50 [µM]
CCCCCCOC[C@H]1O[C@@H](O[C@@H]2[C@@H](O)[C@H](O[C@H]3O[C@H](CN)[C@@H](O)[C@H](O)[C@H]3O)[C@@H](N)C[C@H]2N)[C@H](O)[C@@H](N)[C@@H]1OCCCCCC | 6.2
NC[C@H]1O[C@H](O[C@H]2[C@H](O)[C@@H](O[C@@H]3O[C@H](COCc4cccc5ccccc45)[C@@H](OCc4cccc5ccccc45)[C@H](N)[C@H]3O)[C@H](N)C[C@@H]2N)[C@H](O)[C@@H](O)[C@@H]1O | 6.6
Cc1ccc(COC[C@H]2O[C@@H](O[C@@H]3[C@@H](O)[C@H](O[C@H]4O[C@H](CN)[C@@H](O)[C@H](O)[C@H]4O)[C@@H](N)C[C@H]3N)[C@H](O)[C@@H](N)[C@@H]2OCc2ccc(C)cc2)cc1 | 4.3
CCCCCCO[C@H]1[C@H](N)[C@@H](O)[C@H](O[C@@H]2[C@@H](O)[C@H](O[C@H]3O[C@H](CN)[C@@H](O)[C@H](O)[C@H]3O)[C@@H](N)C[C@H]2N)O[C@@H]1CO | 13.5
CCCCCCCCCOC[C@H]1O[C@@H](O[C@@H]2[C@@H](O)[C@H](O[C@H]3O[C@H](CN)[C@@H](O)[C@H](O)[C@H]3O)[C@@H](N)C[C@H]2N)[C@H](O)[C@@H](N)[C@@H]1OCCCCCCCCC | 18.8
COc1ccc(COC[C@H]2O[C@@H](O[C@@H]3[C@@H](O)[C@H](O[C@H]4O[C@H](CN)[C@@H](O)[C@H](O)[C@H]4O)[C@@H](N)C[C@H]3N)[C@H](O)[C@@H](N)[C@@H]2OCc2ccc(OC)cc2)cc1 | 13
NC[C@H]1O[C@H](O[C@H]2[C@H](O)[C@@H](O[C@@H]3O[C@H](COCc4ccc5ccccc5c4)[C@@H](OCc4ccc5ccccc5c4)[C@H](N)[C@H]3O)[C@H](N)C[C@@H]2N)[C@H](O)[C@@H](O)[C@@H]1O | 4.9
NC[C@H]1O[C@H](O[C@H]2[C@H](O)[C@@H](O[C@@H]3O[C@H](COCc4ccc(Cl)cc4)[C@@H](OCc4ccc(Cl)cc4)[C@H](N)[C@H]3O)[C@H](N)C[C@@H]2N)[C@H](O)[C@@H](O)[C@@H]1O | 2.5
CCCCOC[C@H]1O[C@@H](O[C@@H]2[C@@H](O)[C@H](O[C@H]3O[C@H](CN)[C@@H](O)[C@H](O)[C@H]3O)[C@@H](N)C[C@H]2N)[C@H](O)[C@@H](N)[C@@H]1OCCCC | 19
CCCCCCCCOC[C@H]1O[C@@H](O[C@@H]2[C@@H](O)[C@H](O[C@H]3O[C@H](CN)[C@@H](O)[C@H](O)[C@H]3O)[C@@H](N)C[C@H]2N)[C@H](O)[C@@H](N)[C@@H]1OCCCCCCCC | 13.6
NC[C@H]1O[C@H](O[C@H]2[C@H](O)[C@@H](O[C@@H]3O[C@H](COCc4ccc(F)cc4)[C@@H](OCc4ccc(F)cc4)[C@H](N)[C@H]3O)[C@H](N)C[C@@H]2N)[C@H](O)[C@@H](O)[C@@H]1O | 8.1
NC[C@H]1O[C@H](O[C@H]2[C@H](O)[C@@H](O[C@@H]3O[C@H](COCc4cccc(-c5ccccc5)c4)[C@@H](OCc4cccc(-c5ccccc5)c4)[C@H](N)[C@H]3O)[C@H](N)C[C@@H]2N)[C@H](O)[C@@H](O)[C@@H]1O | 6.2
CO[C@@H]1[C@@H](O[C@@H]2O[C@H](COCc3ccccc3)[C@@H](OCc3ccccc3)[C@H](N)[C@H]2OC)[C@H](N)C[C@H](N)[C@H]1O[C@H]1O[C@H](CN)[C@@H](OC)[C@H](OC)[C@H]1OC | 8.4
